According to PMC8710297, “Identification of potent SENP1 inhibitors that inactivate SENP1/JAK2/STAT signaling pathway and overcome platinum drug resistance in ovarian cancer” (Clinical and Translational Medicine, 2021):
In brackets after ≈: the same amount, converted by molar mass.

What was measured:
IGROV1 CR cells = experiment: Drug synergy screening: SRB proliferation assay with 2 μM cisplatin; type: cell-based
Description: (A) Collection of Momordin Ic (Mc) natural compound analogues. […] Cell proliferation was determined by the sulforhodamine B (SRB) assay. […] IGROV1 CR cells were incubated with Mc at indicated concentrations for 48 h and then harvested for Western blot for indicated proteins. […] IGROV1 CR cells were incubated with UA and then treated as in C. […] Intensity of SUMOylated JAK2 was measured by Quantity One software. […] Recombinant His‐JAK2 was SUMOylated by in vitro SUMOylation assay, and then SUMOylated JAK2 proteins were incubated with or without recombinant GST‐SENP1 together with Mc for 3 h. […] In vitro assay was performed as in (F). […]

[1] = Water solubility determination (HPLC); type: physicochemical; conditions: thermodynamic from solid, ultra-pure water, room temperature
Description: at room tem p eratu re fo r 2 h. After centrifu gation at 3000×g fo r 10 min, the supernatant wa s transferred into a sample vial and dried with Sp ee d vac (Fish er Scientific). So lu ti on s fo r standards were prepared by using a series of different concentrations of ursolic acid (i.e., 0.1, 0.5, 1.0, 2. 0, 5.0 ug /mL in methanol ). Ea c h sample was in jec ted fo r analysis by liq uid chromatography‐tan dem mass spectrometry (UPLC‐MS/MS) with multip le react io n monitor ing (MRM) mode. (2) UPLC‐MS/MS analysis Sa m ples were analyzed wi t h Acquity UPLC syste m (Waters) cou ple d wi t h a Q‐TRAP 6500 mass spectrometer (Sciex). Spe cifically, 5 μL of each sample wa s loaded onto a C18 column (Waters Acquity UPLC BEH C18 1.7μm, 2.1mm x 50 mm). […]
Mass spectra were recorded with Analyst TF 1.6.2 software in th e MRM mode (Q1 mass: 455 Da, Q3 mass:455.1 Da , Time:100 ms, CE: ‐20, DP: ‐50: EP:‐ 7, CXP: ‐12). (3) Data analysis: Data files we re analyzed with quantitated with the “Quantitation Method” in th e An al yst software […]
slid e at a flow ra te of 25 μL/ min wi th 110 s contac t time and 250 s dissociation time. Th e background re s p o ns e was recorded using th e refere nce flow channel, and the background data wa s subtracted from the data fro m each injection sample. […]

solubility at 24 h [1]: 39.7 µg/mL (≈ 69.5 µM)
SMILES: C[C@H]1[C@H](C)CC[C@]2(C(=O)NCC(=O)N(C)CCO)CC[C@]3(C)C(=CC[C@@H]4[C@@]5(C)CC[C@H](O)C(C)(C)[C@@H]5CC[C@]43C)[C@H]12 [UAMMC9]
IC50 of UA derivatives to inhibit resistant cells together with cisplatin (in words) (IGROV1 CR cells): lower IC50
